This passage reports IC50 results from patent publication US9938273B2 (Plexxikon Inc., priority 2015, dated 2018).

This assay relates to MOLM-14 F691L cells, FLT3 ITD and FLT3 F691L. In words: Cell proliferation assay (CellTiter-Glo), MOLM-14 F691L. Type of assay: cell-based. Conditions: Homo sapiens, 72 h, 3d-Growth, GMean. A digest of the protocol: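 MOLM-14 AML cells (endogenous FLT3 ITD, AC220-selected D835Y or F691L variants) or murine Ba/F3 expressing full-length FLT3 ITD/D835Y, without IL-3 for FLT3 dependence, 1×10^4 cells/well. Eight-point 1:3 series from 1 μM final, 0.2% DMSO, 3 days at 37 °C. CellTiter-Glo luminescence (ATP) gave IC50.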
For orientation: In ATP-based viability assays light output follows the ATP content of the culture.

A word on the IC50: it is the concentration that gives 50% inhibition. Low values mean higher potency, high ones lower potency. Consider `C#Cc1cc2cc(-c3cccc(S(=O)(=O)NC4CC4)c3)cnc2[nH]1` [Compound P-0004, N-cyclopropyl-3-(2-ethynyl-1H-pyrrolo[2,3-b]pyridin-5-yl)benzenesulfonamide], for which the IC50 fell in the range of 0.0001 to 10 µM.
The value for `CN(C)CC#Cc1cc2cc(-c3cccc(S(=O)(=O)NC4CC4)c3)cnc2[nH]1` [Compound P-0009, N-cyclopropyl-3-[2-[3-(dimethylamino)prop-1-ynyl]-1H-pyrrolo[2,3-b]pyridin-5-yl]benzenesulfonamide] was 0.0001 to 10 µM; that for `O=S(=O)(NC1CC1)c1cccc(-c2cnc3[nH]c(C#CC4CCCCC4)cc3c2)c1` [Compound P-0010, 3-[2-(2-cyclohexylethynyl)-1H-pyrrolo[2,3-b]pyridin-5-yl]-N-cyclopropyl-benzenesulfonamide] was 0.0001 to 10 µM; that for `CNC1CCN(C(=O)c2cccc(-c3cnc4[nH]c(-c5cn(C)nc5C)cc4c3)n2)C1` (stereo not drawn) [Compound P-0049, [6-[2-(1,3-dimethylpyrazol-4-yl)-1H-pyrrolo[2,3-b]pyridin-5-yl]-2-pyridyl]-[3-(methylamino)pyrrolidin-1-yl]methanone] was 0.0001 to 10 µM.
The value for `c1ccc(-c2cc3cc(-c4cccc(OC5CCNCC5)n4)cnc3[nH]2)cc1` [Compound P-0050, 2-phenyl-5-[6-(4-piperidyloxy)-2-pyridyl]-1H-pyrrolo[2,3-b]pyridine] was 0.0001 to 10 µM; that for `N[C@H]1CCN(C(=O)c2ncc(-c3cnc4[nH]c(-c5ccccc5)cc4c3)s2)C1` [Compound P-0054, [(3S)-3-aminopyrrolidin-1-yl]-[5-(2-phenyl-1H-pyrrolo[2,3-b]pyridin-5-yl)thiazol-2-yl]methanone] was 0.0001 to 10 µM; that for `O=C(Nc1cccc(-c2cnc3[nH]c(-c4ccccc4)cc3c2)n1)C1CNC1` [Compound P-0084, N-[6-(2-phenyl-1H-pyrrolo[2,3-b]pyridin-5-yl)-2-pyridyl]azetidine-3-carboxamide] was 0.0001 to 10 µM.
The value for `O=C(c1cccc(-c2cnc3[nH]c(-c4ccccc4)cc3c2)n1)N1CCC(NC2CC2)C1` (stereo not drawn) [Compound P-0085, [3-(cyclopropylamino)pyrrolidin-1-yl]-[6-(2-phenyl-1H-pyrrolo[2,3-b]pyridin-5-yl)-2-pyridyl]methanone] was 0.0001 to 10 µM.
As to `O=S(=O)(NC1CCNCC1)c1cccc(-c2cnc3[nH]c(-c4ccccc4)cc3c2)n1` [Compound P-0086, 6-(2-phenyl-1H-pyrrolo[2,3-b]pyridin-5-yl)-N-(4-piperidyl)pyridine-2-sulfonamide], the IC50 lay within 0.0001 to 10 µM.
`NC1CCC(NS(=O)(=O)c2cccc(-c3cnc4[nH]c(-c5ccccc5)cc4c3)n2)CC1` (stereo not drawn) [Compound P-0088, N-(4-aminocyclohexyl)-6-(2-phenyl-1H-pyrrolo[2,3-b]pyridin-5-yl)pyridine-2-sulfonamide] showed an IC50 of 0.0001 to 10 µM.
The value for `N#CC1CCN(C(=O)c2cccc(-c3cnc4[nH]c(-c5ccc(F)cc5)cc4c3)n2)C1` (stereo not drawn) [Compound P-0116, 1-[6-[2-(4-fluorophenyl)-1H-pyrrolo[2,3-b]pyridin-5-yl]pyridine-2-carbonyl]pyrrolidine-3-carbonitrile] was 0.0001 to 10 µM; that for `CC(C)(C#N)NC(=O)c1cccc(-c2cnc3[nH]c(-c4cscn4)cc3c2)n1` [Compound P-0167, N-(1-cyano-1-methyl-ethyl)-6-(2-thiazol-4-yl-1H-pyrrolo[2,3-b]pyridin-5-yl)pyridine-2-carboxamide] was 0.0001 to 10 µM.
The value for `CC(C)(C#N)NC(=O)c1cccc(-c2cnc3[nH]c(-c4cnn(C(=O)C5CC5)c4)cc3c2)n1` [Compound P-0184, N-(1-cyano-1-methyl-ethyl)-6-[2-[1-(cyclopropanecarbonyl)pyrazol-4-yl]-1H-pyrrolo[2,3-b]pyridin-5-yl]pyridine-2-carboxamide] was 0.0001 to 10 µM.
The value for `CC(C)(C#N)NC(=O)c1cccc(-c2cnc3[nH]c(-c4cnn(C(F)F)c4)c(Cl)c3c2)n1` [Compound P-0185, 6-[3-chloro-2-[1-(difluoromethyl)pyrazol-4-yl]-1H-pyrrolo[2,3-b]pyridin-5-yl]-N-(1-cyano-1-methyl-ethyl)pyridine-2-carboxamide] was 0.0001 to 10 µM.
In turn, `CC(C)(C#N)NC(=O)c1cccc(-c2cnc3[nH]c(C4=CCS(=O)(=O)CC4)cc3c2)n1` [Compound P-0186, N-(1-cyano-1-methyl-ethyl)-6-[2-(1,1-dioxo-3,6-dihydro-2H-thiopyran-4-yl)-1H-pyrrolo[2,3-b]pyridin-5-yl]pyridine-2-carboxamide] displayed an IC50 of 0.0001 to 10 µM.
The value for `CC(C)Oc1ccc(-c2cc3cc(-c4cccc(C(=O)NC(C)(C)C#N)n4)cnc3[nH]2)cn1` [Compound P-0190, N-(1-cyano-1-methyl-ethyl)-6-[2-(6-isopropoxy-3-pyridyl)-1H-pyrrolo[2,3-b]pyridin-5-yl]pyridine-2-carboxamide] was 0.0001 to 10 µM; that for `CC(C)Oc1ncc(-c2cc3cc(-c4cccc(C(=O)NC(C)(C)C#N)n4)cnc3[nH]2)cn1` [Compound P-0191, N-(1-cyano-1-methyl-ethyl)-6-[2-(2-isopropoxypyrimidin-5-yl)-1H-pyrrolo[2,3-b]pyridin-5-yl]pyridine-2-carboxamide] was 0.0001 to 10 µM.
Turning to `Cc1nn(C(C)C)cc1-c1[nH]c2ncc(-c3cccc(C(=O)NC(C)(C)C#N)n3)cc2c1Cl` [Compound P-0192], the IC50 fell in the range of 0.0001 to 10 µM.
Take `CC(C)(C#N)NC(=O)c1cccc(-c2cnc3[nH]c(-c4cnn(CC(F)(F)F)c4)cc3c2)n1` [Compound P-0193, N-(1-cyano-1-methyl-ethyl)-6-[2-[1-(2,2,2-trifluoroethyl)pyrazol-4-yl]-1H-pyrrolo[2,3-b]pyridin-5-yl]pyridine-2-carboxamide]: the IC50 fell in the range of 0.0001 to 10 µM.
The value for `CC(C)(C#N)NC(=O)c1cccc(-c2cnc3[nH]c(-c4ccc(C5(C#N)CC5)cc4)cc3c2)n1` [Compound P-0194, 6-[2-[4-(1-cyanocyclopropyl)phenyl]-1H-pyrrolo[2,3-b]pyridin-5-yl]-N-(1-cyano-1-methyl-ethyl)pyridine-2-carboxamide] was 0.0001 to 10 µM; that for `CC(C)(C#N)NC(=O)c1cccc(-c2cnc3[nH]c(-c4cncnc4)cc3c2)n1` [Compound P-0195, N-(1-cyano-1-methyl-ethyl)-6-(2-pyrimidin-5-yl-1H-pyrrolo[2,3-b]pyridin-5-yl)pyridine-2-carboxamide] was 0.0001 to 10 µM.
The value for `COc1ncc(-c2cc3cc(-c4cccc(C(=O)NC(C)(C)C#N)n4)cnc3[nH]2)cn1` [Compound P-0196, N-(1-cyano-1-methyl-ethyl)-6-[2-(2-methoxypyrimidin-5-yl)-1H-pyrrolo[2,3-b]pyridin-5-yl]pyridine-2-carboxamide] was 0.0001 to 10 µM; that for `CC(C)(C#N)NC(=O)c1cccc(-c2cnc3[nH]c(-c4ccc(N5CCOCC5)nc4)cc3c2)n1` [Compound P-0197, N-(1-cyano-1-methyl-ethyl)-6-[2-(6-morpholino-3-pyridyl)-1H-pyrrolo[2,3-b]pyridin-5-yl]pyridine-2-carboxamide] was 0.0001 to 10 µM; that for `CC(C)(C#N)NC(=O)c1cccc(-c2cnc3[nH]c(-c4ccc(C(F)(F)F)nc4)cc3c2)n1` [Compound P-0201, N-(1-cyano-1-methyl-ethyl)-6-[2-[6-(trifluoromethyl)-3-pyridyl]-1H-pyrrolo[2,3-b]pyridin-5-yl]pyridine-2-carboxamide] was 0.0001 to 10 µM.
The value for `CCOc1ncc(-c2cc3cc(-c4cccc(C(=O)NC(C)(C)C#N)n4)cnc3[nH]2)cn1` [Compound P-0203, N-(1-cyano-1-methyl-ethyl)-6-[2-(2-ethoxypyrimidin-5-yl)-1H-pyrrolo[2,3-b]pyridin-5-yl]pyridine-2-carboxamide] was 0.0001 to 10 µM; that for `CC(C)(C#N)NC(=O)c1cccc(-c2cnc3[nH]c(-c4cnc(C(F)(F)F)nc4)cc3c2)n1` [Compound P-0204, N-(1-cyano-1-methyl-ethyl)-6-[2-[2-(trifluoromethyl)pyrimidin-5-yl]-1H-pyrrolo[2,3-b]pyridin-5-yl]pyridine-2-carboxamide] was 0.0001 to 10 µM; that for `CCc1ncc(-c2cc3cc(-c4cccc(C(=O)NC(C)(C)C#N)n4)cnc3[nH]2)cn1` [Compound P-0205, N-(1-cyano-1-methyl-ethyl)-6-[2-(2-ethylpyrimidin-5-yl)-1H-pyrrolo[2,3-b]pyridin-5-yl]pyridine-2-carboxamide] was 0.0001 to 10 µM.
For `CCCOc1ncc(-c2cc3cc(-c4cccc(C(=O)NC(C)(C)C#N)n4)cnc3[nH]2)cn1` [Compound P-0206, N-(1-cyano-1-methyl-ethyl)-6-[2-(2-propoxypyrimidin-5-yl)-1H-pyrrolo[2,3-b]pyridin-5-yl]pyridine-2-carboxamide], the IC50 fell in the range of 0.0001 to 10 µM.
As to `CC(C)(C#N)NC(=O)c1cccc(-c2cnc3[nH]c(-c4ccc(F)nc4)cc3c2)n1` [Compound P-0208, N-(1-cyano-1-methyl-ethyl)-6-[2-(6-fluoro-3-pyridyl)-1H-pyrrolo[2,3-b]pyridin-5-yl]pyridine-2-carboxamide], the IC50 lay in the range of 0.0001 to 10 µM.
`CC(C)(C#N)NC(=O)c1cccc(-c2cnc3[nH]c(-c4cnc(C(C)(C)O)nc4)cc3c2)n1` [Compound P-0211, N-(1-cyano-1-methyl-ethyl)-6-[2-[2-(1-hydroxy-1-methyl-ethyl)pyrimidin-5-yl]-1H-pyrrolo[2,3-b]pyridin-5-yl]pyridine-2-carboxamide] registered an IC50 of 0.0001 to 10 µM.
